Laboratory results taken from patent US10654845B2, “2-(het)aryl-substituted fused bicyclic heterocycle derivatives as pesticides” (BAYER CROPSCIENCE AKTIENGESELLSCHAFT, priority 2015, dated 2020).

Columns and labels:
Ctenocephalides felis [1] = assay: Ctenocephalides felis oral test; format: in vivo; details: 100 ppm, after 2 days
Protocol: Ctenocephalides felis-Oral Test
(§1) Solvent: dimethyl sulphoxide
To produce a suitable preparation of active compound, 10 mg of active compound are mixed with 0.5 ml of dimethyl sulphoxide. Dilution with citrated cattle blood gives the desired concentration.
About 20 unfed adult cat fleas (Ctenocephalides felis) are placed into a chamber which is closed at the top and bottom with gauze. A metal cylinder whose bottom end is closed with parafilm is placed onto the chamber. The cylinder contains the blood/active compound preparation, which can be imbibed by the fleas through the parafilm membrane.
After 2 days, the kill in % is determined. 100% means that all of the fleas have been killed; 0% means that none of the fleas have been killed.

[2] = log P by HPLC on reversed-phase column (C18), EEC Directive 79/831 Annex V.A8; details: for chromatographic logP: reversed-phase HPLC column (C18)
Description: Called log P (HCOOH) in the table.
Called log P (neutral) in the table.

Musca domestica = Musca domestica test; format: in vivo; details: 100 ppm, after 2 days, adult houseflies
Protocol: as §1
(§2) To produce a suitable preparation of active compound, 10 mg of active compound are mixed with 0.5 ml of dimethyl sulphoxide, and the concentrate is diluted with water to the desired concentration.
Vessels containing a sponge treated with sugar solution and the active compound preparation of the desired concentration are populated with 10 adult houseflies (Musca domestica).
After 2 days, the kill in % is determined. 100% means that all of the flies have been killed; 0% means that none of the flies have been killed.

Myzus persicae [3] = assay: Myzus persicae spray test (Chinese cabbage leaf discs); format: in vivo; details: 500 g/ha, after 6 days, aphids killed; for pest or weed control at 500 g/ha: Myzus persicae, foliar, 144 h, read-out: efficacy in %
Protocol: (§3) Myzus persicae Spray Test
Solvent: 78 parts by weight of acetone
(§4) • 1.5 parts by weight of dimethylformamide Emulsifier: alkylaryl polyglycol ether
(§5) To produce a suitable preparation of active compound, 1 part by weight of active compound is dissolved using the stated parts by weight of solvent and made up with water containing an emulsifier concentration of 1000 ppm until the desired concentration is attained. To produce further test concentrations, the preparation is diluted with emulsifier-containing water.
Discs of Chinese cabbage leaves (Brassica pekinensis) infested by all stages of the green peach aphid (Myzus persicae) are sprayed with an active compound preparation of the desired concentration.
After 6 days, the efficacy in % is determined. 100% means that all the aphids have been killed; 0% means that no aphids have been killed.

Lucilia cuprina = Lucilia cuprina test; format: in vivo; details: 100 ppm, after 2 days, L1 larvae
Protocol: as §1, §2
About 20 L1 larvae of the Australian sheep blowfly (Lucilia cuprina) are transferred into a test vessel containing minced horsemeat and the active compound preparation of the desired concentration.
After 2 days, the kill in % is determined. 100% means that all the larvae have been killed; 0% means that no larvae have been killed.

Phaedon cochleariae = Phaedon cochleariae spray test; format: in vivo; details: 500 g/ha, after 7 days, beetle larvae killed; for pest or weed control at 500 g/ha: Phaedon cochleariae, 168 h, read-out: efficacy in %
Protocol: Phaedon cochleariae-Spray Test
(§6) Solvent: 78.0 parts by weight of acetone
as §4, §5
After 7 days, the efficacy in % is determined. 100% means that all the beetle larvae have been killed; 0% means that no beetle larvae have been killed.

Spodoptera frugiperda = Spodoptera frugiperda spray test; format: in vivo; details: 500 g/ha, after 7 days, caterpillars killed
Protocol: Spodoptera frugiperda-Spray Test Solvent: 78.0 parts by weight of acetone • • 1.5 parts by weight of dimethylformamide Emulsifier: alkylaryl polyglycol ether […] To produce further test concentrations, the preparation is diluted with emulsifier-containing water. Leaf disks of maize (Zea mays) are sprayed with an active compound preparation of the desired concentration and, after drying, populated with caterpillars of the armyworm (Spodoptera frugiperda).

[4] = tested on: Anopheles funestus strain FUMOZ-R; assay: whole plant or invertebrate; format: in vivo; details: read-out: mortality in %
Protocol: Anopheles Test (ANPHFU Surface Treatment)
(§7) Solvent: acetone+2000 ppm rapeseed oil methyl ester (RME)
(§8) To produce an appropriate active compound formulation, the active compound is dissolved in the solvent (2 mg/ml). The active compound formulation is pipetted onto a glazed tile and, after it has dried off, adult mosquitoes of the species Anopheles funestus strain FUMOZ-R (Hunt et al., Med Vet Entomol. 2005 September; 19(3):271-5) are placed onto the treated tile. The exposure time is 30 minutes.
(§9) 24 hours after contact with the treated surface, mortality in % is determined. 100% means that all mosquitoes have been killed; 0% means that none of the mosquitoes have been killed.

Boophilus microplus = Boophilus microplus injection test; format: in vivo; details: 20 μg/animal, assessed after 7 days
Protocol: Boophilus microplus-Injection Test
as §1
To produce a suitable preparation of active compound, 10 mg of active compound are mixed with 0.5 ml of solvent and the concentrate is diluted with solvent to the desired concentration.
1 μl of the active compound solution is injected into the abdomen of 5 engorged adult female cattle ticks (Boophilus microplus). The animals are transferred into dishes and kept in a climate-controlled room.
Efficacy is assessed after 7 days by laying of fertile eggs. Eggs which are not visibly fertile are stored in a climate-controlled cabinet until the larvae hatch after about 42 days. An efficacy of 100% means that none of the ticks has laid any fertile eggs; 0% means that all the eggs are fertile.

Meloidogyne incognita = Meloidogyne incognita test; format: in vivo; details: 20 ppm, after 14 days, formation of galls
Protocol: Meloidogyne incognita-Test
Solvent: 125.0 parts by weight of acetone
To produce a suitable preparation of active compound, 1 part by weight of active compound is mixed with the stated amount of solvent and the concentrate is diluted with water to the desired concentration.
Vessels are filled with sand, active compound solution, an egg/larvae suspension of the southern root-knot nematode (Meloidogyne incognita) and lettuce seeds. The lettuce seeds germinate and the plants develop. The galls develop on the roots.
After 14 days, the nematicidal efficacy in % is determined by the formation of galls. 100% means that no galls were found; 0% means that the number of galls on the treated plants corresponds to the untreated control.

[5] = tested on: Aedes aegypti strain MONHEIM; assay: whole plant or invertebrate; format: in vivo; details: read-out: mortality in %
Protocol: Aedes Test (AEDSAE Surface Treatment)
as §7
as §8, with “Aedes aegypti” for “Anopheles funestus”, “MONHEIM” for “FUMOZ-R (Hunt et al., Med Vet Entomol. 2005 September; 19(3):271-5)”
as §9

[6] = tested on: Anopheles gambiae strain RSPH (homozygot kdr); assay: Anopheles test (ANPHGB surface treatment); format: in vivo; details: 24 hours after contact
Protocol: Anopheles Test (ANPHGB Surface Treatment)
as §7
as §8, with “gambiae” for “funestus”, “RSPH (homozygot kdr)” for “FUMOZ-R (Hunt et al., Med Vet Entomol. 2005 September; 19(3):271-5)”
as §9

Ctenocephalides felis [7] = assay: Ctenocephalides felis in vitro contact tests with adult cat fleas; format: in vivo; details: 5 μg/cm^2 (500 g/ha), after 48 h
Protocol: Ctenocephalides felis—In Vitro Contact Tests with Adult Cat Fleas
For the coating of the test tubes, 9 mg of active compound are first dissolved in 1 ml of acetone p.a. and then diluted to the desired concentration with acetone p.a. 250 μl of the solution are distributed homogeneously on the inner walls and the base of a 25 ml test tube by turning and rocking on an orbital shaker (rocking rotation at 30 rpm for 2 h). With 900 ppm active compound solution and internal surface 44.7 cm^2, given homogeneous distribution, an area-based dose of 5 μg/cm^2 is achieved.
After the solvent has evaporated off, the tubes are populated with 5-10 adult cat fleas (Ctenocephalides felis), sealed with a perforated plastic lid and incubated in a horizontal position at room temperature and ambient humidity. After 48 h, efficacy is determined. To this end, the test tubes are stood upright and the fleas are knocked to the base of the tube. Fleas which remain motionless at the base or move in an uncoordinated manner are considered to be dead or moribund.
100% efficacy means that all the fleas were dead or moribund. 0% efficacy means that no fleas were harmed.

Myzus persicae [8] = assay: Myzus persicae spray test (bell pepper plants); format: in vivo; details: 100 ppm, after 6 days
Protocol: as §3
Solvent: 7 parts by weight of dimethylformamide
Emulsifier: alkylaryl polyglycol ether
as §5, with “water. If the addition of ammonium salts or/and penetrants is required, these are each added in a concentration of 1000 ppm to the formulation solution.” for “water.”
Bell pepper plants (Capsicum annuum) severely infested with the green peach aphid (Myzus persicae) are treated by spraying with the active compound preparation in the desired concentration.
After 6 days, the kill in % is determined. 100% means that all of the aphids have been killed; 0% means that none of the aphids have been killed.

Tetranychus urticae = Tetranychus urticae spray test, OP-resistant; format: in vivo; details: 500 g/ha, after 6 days, spider mites killed
Protocol: Tetranychus urticae-Spray Test, OP-Resistant
as §6, §4, §5
Discs of bean leaves (Phaseolus vulgaris) infested with all stages of the greenhouse red spider mite (Tetranychus urticae) are sprayed with an active compound preparation of the desired concentration.
After 6 days, the efficacy in % is determined. 100% means that all the spider mites have been killed; 0% means that no spider mites have been killed.

[9] = pH 2.7, logP-acidic, LC-MS acidic range, pH 2.7 (HCOOH), C18, 55° C.
[10] = pH 7.8, log P (neutral), preparation examples, neutral range, pH 7.8
[11] = pH 7.8, logP-neutral, LC-MS neutral range, pH 7.8, C18, 55° C.
[12] = LC-MS acidic range, pH 2.7 (HCOOH), C18, 55° C.
[13] = LC-MS neutral range, pH 7.8, C18, 55° C.

SMILES	kill in % (Ctenocephalides felis [1])	logP-acidic ([2]; pH 2.7)	logP-neutral ([2]; pH 7.8)	kill in % (Musca domestica)	efficacy in % (Myzus persicae [3])	kill in % (Lucilia cuprina)	efficacy in % (Phaedon cochleariae)	efficacy in % (Spodoptera frugiperda)	chromatographic logP [2, 9]	chromatographic logP [2, 10]	chromatographic logP [2, 11]	pest or weed control at 500 g/ha (Phaedon cochleariae)	nematicidal efficacy in % (Meloidogyne incognita)	further results
CCS(=O)(=O)c1ccc(NC(=O)C(F)(F)C(F)F)nc1-c1nc2cc(C(F)(F)F)ncc2n1C [Example 8]	100%	2.80	2.12	100%	90%	100%	100%							
CCOc1ccc(S(=O)(=O)CC)c(-c2nc3cc(C(F)(F)F)ncc3n2C)n1 [Example 10, 2-[6-Ethoxy-3-(ethylsulphonyl)pyridin-2-yl]-3-methyl-6-(trifluoromethyl)-3H-imidazo[4,5-c]pyridine]				90%		100%		83%	2.94	2.86	2.86	100%		pest or weed control at 500 g/ha (Myzus persicae [3]): 90%
CCS(=O)(=O)c1ccc(N)nc1-c1nc2cc(C(F)(F)F)ncc2n1C [Example 14, 5-(Ethylsulphonyl)-6-[3-methyl-6-(trifluoromethyl)-3H-imidazo[4,5-c]pyridin-2-yl]pyridine-2-amine]	100%					100%			1.63	1.62	1.62	100%	90%	mortality at 20 mg/m2 [4]: 80 to 100%; mortality at 100 mg/m2 [4]: 80 to 100%; efficacy (laying of fertile eggs) (Boophilus microplus): 80%; pest or weed control at 500 g/ha (Myzus persicae [3]): 90%; mortality at 20 mg/m2 [5]: 80 to 100%; mortality at 100 mg/m2 [5]: 80 to 100%; mortality at 20 mg/m2 ([6]; 20 mg/m^2, 30 minutes exposure): 80 to 100%; mortality at 100 mg/m2 ([6]; 100 mg/m^2, 30 minutes exposure): 80 to 100%
CCS(=O)(=O)c1ccc(OC(C)C)nc1-c1nc2cc(C(F)(F)F)ncc2n1C [Example 18]		3.31	3.22										90%	
CCS(=O)(=O)c1ccc(NC(=O)C2CC2)nc1-c1nc2cc(C(F)(F)F)ncc2n1C [Example 22]	100%	2.43		100%		90%	100%							efficacy (laying of fertile eggs) (Boophilus microplus): 80%; efficacy (dead or moribund fleas) (Ctenocephalides felis [7]): 100%; kill in % (Myzus persicae [8]): 100%
CCS(=O)(=O)c1ccc(SC(C)C)nc1-c1nc2cc(C(F)(F)F)ncc2n1C [Example 29]													90%	logP-acidic [2, 12]: 3.62; logP-neutral [2, 13]: 3.53
CCS(=O)(=O)c1ccc(/C=C/C2CC2)nc1-c1nc2cc(C(F)(F)F)ncc2n1C [Example 40, 2-{6-[(E)-2-Cyclopropylvinyl]-3-(ethylsulphonyl)pyridin-2-yl}-3-methyl-6-(trifluoromethyl)-3H-imidazo[4,5-c]pyridine]								100%	3.33	3.24	3.24	100%		kill in % (Myzus persicae [8]): 100%
CCNc1ccc(S(=O)(=O)CC)c(-c2nc3cc(C(F)(F)F)ncc3n2C)n1 [Example 56]					100%		100%						100%	logP-acidic [2, 12]: 2.37; logP-neutral [2, 13]: 2.35; efficacy in % (Tetranychus urticae): 90%
CCS(=O)(=O)c1ccc(NC(C)=O)nc1-c1nc2cc(C(F)(F)C(F)(F)F)ncc2n1C [Example 62]		2.54	2.47				100%	100%					90%	efficacy in % (Tetranychus urticae): 90%
CCS(=O)(=O)c1ccc(NC(=O)C(C)CSC)nc1-c1nc2cc(C(F)(F)F)ncc2n1C (stereo not shown) [Example 65]		2.94	2.78		100%		100%						100%	
